Consider 31 compounds from patent publication US20180170941A1 (priority 2016, published 2018).

In one test the target is T1, α5β3γ2 GABAA receptors (Ltk cell membranes) (Homo sapiens, UniProt P18507+P31644).
T1 construct: membranes
T1 sequence (P31644 32-462): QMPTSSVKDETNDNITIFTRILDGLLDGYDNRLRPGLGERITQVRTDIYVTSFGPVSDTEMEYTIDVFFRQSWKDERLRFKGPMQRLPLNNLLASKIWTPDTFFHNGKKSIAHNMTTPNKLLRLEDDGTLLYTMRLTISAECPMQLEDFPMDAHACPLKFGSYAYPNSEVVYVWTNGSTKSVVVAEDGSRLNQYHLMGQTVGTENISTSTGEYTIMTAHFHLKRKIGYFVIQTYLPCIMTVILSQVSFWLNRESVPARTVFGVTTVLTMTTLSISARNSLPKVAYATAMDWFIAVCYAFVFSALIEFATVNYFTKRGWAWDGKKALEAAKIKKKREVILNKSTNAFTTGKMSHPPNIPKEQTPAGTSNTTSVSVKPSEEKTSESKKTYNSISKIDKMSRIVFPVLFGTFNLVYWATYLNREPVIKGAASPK
T1 sequence (P28472 26-473 partner): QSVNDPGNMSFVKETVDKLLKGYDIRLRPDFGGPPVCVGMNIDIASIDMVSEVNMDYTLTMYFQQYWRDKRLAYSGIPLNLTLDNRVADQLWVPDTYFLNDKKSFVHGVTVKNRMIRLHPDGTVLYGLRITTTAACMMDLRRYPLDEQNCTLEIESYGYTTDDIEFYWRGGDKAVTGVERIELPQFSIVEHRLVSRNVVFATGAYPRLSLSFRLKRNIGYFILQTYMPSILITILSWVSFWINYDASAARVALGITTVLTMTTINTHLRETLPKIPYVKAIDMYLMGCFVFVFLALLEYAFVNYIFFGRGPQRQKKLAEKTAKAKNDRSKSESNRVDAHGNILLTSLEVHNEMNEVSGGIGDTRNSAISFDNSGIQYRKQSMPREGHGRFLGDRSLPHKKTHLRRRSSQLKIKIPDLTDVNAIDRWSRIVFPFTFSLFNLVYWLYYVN
T1 sequence (P18507 40-475): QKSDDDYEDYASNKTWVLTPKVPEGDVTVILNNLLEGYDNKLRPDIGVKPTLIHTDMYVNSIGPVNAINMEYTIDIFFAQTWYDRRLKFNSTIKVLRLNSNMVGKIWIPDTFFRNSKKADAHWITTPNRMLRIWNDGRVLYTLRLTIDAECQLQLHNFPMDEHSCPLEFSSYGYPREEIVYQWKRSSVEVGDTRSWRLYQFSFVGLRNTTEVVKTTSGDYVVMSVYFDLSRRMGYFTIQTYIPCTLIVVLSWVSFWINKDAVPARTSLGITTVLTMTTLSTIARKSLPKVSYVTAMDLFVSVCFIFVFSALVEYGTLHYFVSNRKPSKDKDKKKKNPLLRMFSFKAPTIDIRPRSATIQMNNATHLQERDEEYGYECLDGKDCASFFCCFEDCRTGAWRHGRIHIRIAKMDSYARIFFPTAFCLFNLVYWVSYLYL
The test can be described thus: Binding activity of test compounds on GABAAR: inhibition of [3H]Ro15-1788 binding.
Conditions: not given
The protocol:
Tissue culture and Membrane Preparation: The binding was performed on Ltk cells stably expressing GABAA receptors: α1β1γ2, α2β3γ2, α3β3γ2 and α5β3γ2 (provided by Merck Co., NJ, USA). Cells were seeded in 100 mm culture plates in DMEM/F12 medium containing 10% serum and antibiotics in 5% CO2 and allowed to grow for 1-2 days. GABAAR expression was then induced by dexamethasone as follows: 0.5 μM for 1 day for α5 containing and 2μM for 3 days for α1, α2 and α3 containing GABAARs. After induction, cells were collected by scraping into Dulbecco's Phosphate buffered saline (DPBS, pH 7.4, Invitrogen, Carlsbad, Calif., USA) and centrifuged at 150×g for 10 min. The pellet was washed twice by re-suspension and centrifugation. The cell pellets from at least 5 different preps were combined, suspended in the binding assay buffer (50 mM KH2P4; 1 mM EDTA; 0.2 M KCl, pH 7.4) and membranes prepared by sonication (3-5 times, 30 sec) using Branson Sonifier 150 (G.Heinmann, Germany). Protein content was determined using BCA assay (Bio-Rad Labs, Reinach, Switzerland) with Bovine Serum Albumin (Sigma Aldrich, St. Louis, Mo., USA) as the standard. Aliquots were prepared and stored at −20° C. for further use in binding assays.
Ligand Binding: Saturation binding curves were obtained by incubating membranes with increasing concentrations (0.01-8 nM) of [^3H]Ro15-1788 (Flumazepil, 75-85 Ci/mmol, PerkinElmer, MA, USA), with nonspecific binding measured in the presence of 10 μM diazepam.
All binding assays were performed for 1 h at 4° C. in assay buffer. The total assay volume was 0.5 ml containing 0.2 mg/ml protein for α5 and 0.4 mg/ml for α1, α2, and α3 containing GABAAR membranes. Incubations were terminated by filtration through GF/B filters using a 24-Cell Harvestor (Brandel, Gaithersburg, Md., USA) followed by 3 washes with ice-cold assay buffer. Filters were transferred to scintillation vials, 5 ml scintillation liquid added, vortex-mixed and kept in dark. Next day, radioactivity was obtained using a scintillation counter (Beckman Coulter, Brea, Calif., USA). All assays were performed in triplicate.
Data Analyses: Saturation and inhibition curves were obtained using GraphPad Prism software (GraphPad Software, Inc., CA, USA).
The compound `COCc1nnc2n1Cc1c(C3=NCC(C)(C)CO3)ncn1-c1ccc(Cl)cc1-2` [Compound 239] had an inhibition constant (Ki) of more than 1000 nM.

Staying with this test, now noted: GABA α5 Binding Ki Values, inhibition of [3H]Ro15-1788 binding; reported as ranges.
`C#Cc1ncn2c1Cn1c(COc3ccccc3)nnc1-c1cc(Cl)ccc1-2` [Compound 205] had an inhibition constant (Ki) of less than 100 nM.

Take `COCc1nnc2n1Cc1c(-c3nc(C(C)C)no3)ncn1-c1ccc(Cl)cc1-2` [Compound 206]: the Ki was less than 100 nM.

For `COc1ccc2c(c1)-n1nnc(Cc3ccccc3)c1Cc1c(C#N)ncn1-2` [Compound 207], the inhibitory constant (Ki) was less than 100 nM.

For `COc1ccc2c(c1)-n1nnc(Cc3ccccc3Cl)c1Cc1c(C#N)ncn1-2` [Compound 208], the Ki was less than 100 nM.

In the case of `COc1ccc2c(c1)-n1nnc(Cc3cccc(Cl)c3)c1Cc1c(C#N)ncn1-2` [Compound 209], the inhibition constant Ki was less than 100 nM.

`COc1ccc2c(c1)-n1nnc(Cc3cccnc3)c1Cc1c(C#N)ncn1-2` [Compound 210] had an inhibition constant Ki of less than 100 nM.

`CCOCc1nnc2n1Cc1c(Br)ncn1-c1ccc(Cl)cc1-2` [Compound 216] displayed an inhibition constant (Ki) of less than 100 nM.

Regarding `COCc1nnc2n1Cc1c(Br)ncn1-c1ccc(Cl)cc1-2` [Compound 217], the Ki is less than 100 nM.

Compound `C#Cc1ncn2c1Cc1c(C(=O)c3ccc(F)cc3)nnn1-c1cc(OC)ccc1-2` [Compound 218] yielded an inhibition constant Ki of less than 100 nM.

Compound `C#Cc1ncn2c1Cc1c(C(=O)c3ccc(Cl)cc3)nnn1-c1cc(OC)ccc1-2` [Compound 219] had a Ki of 100 to 1000 nM.

Compound `C=Cc1ncn2c1Cc1c(Cc3ccccc3)nnn1-c1cc(OC)ccc1-2` [Compound 220] had a Ki of 100 to 1000 nM.

On to `C=Cc1ncn2c1Cc1c(Cc3ccc(C)cc3)nnn1-c1cc(OC)ccc1-2` [Compound 221], for which the inhibitory constant (Ki) is more than 1000 nM.

In turn, `COc1ccc2c(c1)-n1nnc(COc3ccc(F)cc3)c1Cc1c(C#N)ncn1-2` [Compound 222] gave an inhibition constant (Ki) of less than 100 nM.

Take `COc1ccc2c(c1)-n1nnc(COc3ccccc3F)c1Cc1c(C#N)ncn1-2` [Compound 223]: the Ki is less than 100 nM.

`COc1ccc2c(c1)-n1nnc(COc3ccccc3)c1Cc1c(C#N)ncn1-2` [Compound 224] gave a Ki of less than 100 nM.

As for `COc1ccc2c(c1)-n1nnc(COc3cccc(Br)c3)c1Cc1c(C#N)ncn1-2` [Compound 225], the Ki is less than 100 nM.

The compound `N#Cc1ncn2c1Cc1c(COc3ccccc3)nnn1-c1cc(Cl)ccc1-2` [Compound 226] yielded an inhibition constant Ki of less than 100 nM.

On to `N#Cc1ncn2c1Cc1c(COc3cccc(F)c3)nnn1-c1cc(Cl)ccc1-2` [Compound 227], for which the Ki was less than 100 nM.

Take `Fc1ccc2c(c1)-n1cnc(Br)c1Cc1c(Cc3ccccc3)nnn1-2` [Compound 229]: the Ki was more than 1000 nM.

Compound `CC(C)c1nc(-c2ncn3c2Cc2c(C(=O)c4ccc(F)cc4)nnn2-c2ccc(F)cc2-3)no1` [Compound 230] had an inhibition constant (Ki) of less than 100 nM.

With `CC(C)c1nc(-c2ncn3c2Cc2c(Cc4ccc(F)cc4)nnn2-c2ccc(F)cc2-3)no1` [Compound 231], the Ki is more than 1000 nM.

`COc1ccc2c(c1)-c1nnc(COc3ccccc3)n1Cc1c(Br)ncn1-2` [Compound 232] returned a Ki of less than 100 nM.

The compound `COCc1nnc2n1Cc1c(-c3cc(C)no3)ncn1-c1ccc(Cl)cc1-2` [Compound 233] returned a Ki of less than 100 nM.

`COc1ccc2c(c1)-c1nnc(COc3cccnc3)n1Cc1c(Br)ncn1-2` [Compound 235] displayed a Ki of less than 100 nM.

`C#Cc1ncn2c1Cn1c(COc3ccccc3)nnc1-c1cc(OC)ccc1-2` [Compound 236] displayed a Ki of less than 100 nM.

Take `COCc1nnc2n1Cc1c(C3=NCCCO3)ncn1-c1ccc(Cl)cc1-2` [Compound 237]: the inhibition constant Ki was 100 to 1000 nM.

Regarding `COCc1nnc2n1Cc1c(C3=NCCO3)ncn1-c1ccc(Cl)cc1-2` [Compound 238], the Ki was less than 100 nM.

Regarding `COCc1nnc2n1Cc1c(C3=N[C@@H](C(C)C)CO3)ncn1-c1ccc(Cl)cc1-2` [Compound 240], the Ki was in the range of 100 to 1000 nM.

Regarding `C#Cc1ncn2c1Cn1c(COc3cccnc3)nnc1-c1cc(OC)ccc1-2` [Compound 241], the inhibitory constant (Ki) was less than 100 nM.

The compound `COCc1nnc2n1Cc1c(C3=NC(c4ccccc4)CO3)ncn1-c1ccc(Cl)cc1-2` (stereo not shown) [Compound 242] registered a Ki of less than 100 nM.

As usually defined, the Ki is a dissociation constant, usually derived from enzyme kinetics or from competition with a known ligand.
